Data published in patent US8951752B2, “N-demethyase genes and uses thereof” (priority 2011, dated 2015).
“And” between values parts separate entries of the source, which are not always exact repeats. Equal entries are not always repeated.

How the values were obtained:
[1] = biological target: T1, N-demethylase (Ndm: NdmA and NdmB subunits) (Pseudomonas putida, UniProt H9N289+H9N290); experiment: Methylxanthine N-demethylase activity assay with purified Ndm plus partially purified Ccr; type: biochemical, Pseudomonas putida CBB5; settings: for Products identified: same products at 500 and 200 μM substrate; for Relative N-demethylase activity: relative to paraxanthine; for product formed from paraxanthine: 7.4 mU / 7.4 units of Ndm, 90 minutes
T1 construct: lane 3, natural Ndm purified from P. putida CBB5; made in house; host or cells: purified from the natural strain Pseudomonas putida CBB5 (DEAE, Phenyl and Q Sepharose); not recombinant
T1 sequence (H9N289 1-351): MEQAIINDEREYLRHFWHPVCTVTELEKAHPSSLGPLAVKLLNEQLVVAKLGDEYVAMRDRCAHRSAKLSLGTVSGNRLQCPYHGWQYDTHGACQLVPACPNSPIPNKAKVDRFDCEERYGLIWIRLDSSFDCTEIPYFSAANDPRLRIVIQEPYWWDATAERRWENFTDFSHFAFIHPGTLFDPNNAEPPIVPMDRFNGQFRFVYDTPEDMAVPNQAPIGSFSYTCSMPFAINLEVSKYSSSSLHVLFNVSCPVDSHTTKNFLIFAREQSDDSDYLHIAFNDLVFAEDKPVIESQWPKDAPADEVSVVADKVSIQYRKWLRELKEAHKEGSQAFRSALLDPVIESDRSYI
T1 sequence (H9N290 1-355): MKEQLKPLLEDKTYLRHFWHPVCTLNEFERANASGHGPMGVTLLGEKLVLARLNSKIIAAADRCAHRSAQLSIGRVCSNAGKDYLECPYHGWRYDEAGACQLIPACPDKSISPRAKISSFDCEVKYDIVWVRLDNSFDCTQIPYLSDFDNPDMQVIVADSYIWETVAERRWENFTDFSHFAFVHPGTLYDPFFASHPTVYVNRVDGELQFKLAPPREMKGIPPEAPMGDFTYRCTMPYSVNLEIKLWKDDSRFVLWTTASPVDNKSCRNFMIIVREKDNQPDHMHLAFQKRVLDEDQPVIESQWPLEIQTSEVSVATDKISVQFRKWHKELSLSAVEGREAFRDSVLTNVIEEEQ
Experimental: Methylxanthine N-demethylase activity assay contained, in 1-mL total volume, 0.5 mM methylxanthine, 1 mM NADH, 50 μM Fe(NH4)2(SO4)2, and an appropriate amount of Ndm (0.08-7.5 mg protein, depending on purity of the protein) in 50 mM KPi buffer. Approximately 4 U of partially purified Ccr was added to reaction mixture when assaying Ndm in Phenyl Sepharose and Q Sepharose eluant-fractions (Ccr was not added to the enzyme reaction mixture when assaying Ndm activity in DEAE Sepharose eluant-fractions because Ccr co-eluted with Ndm). The reaction mixture was incubated at 30° C. with 300 rpm shaking on an incubating microplate shaker (VWR). Periodically, a small aliquot was sampled from the reaction mixture and mixed with equal volume of acetonitrile for quantifying concentrations of methylxanthines and N-demethylated products by HPLC. One unit of N-demethylase activity was defined as the consumption of one μmole methylxanthine per minute. When Ndm was coupled with the reductase and ferredoxin components of naphthalene dioxygenase of Pseudomonas sp. strain 9816 (Haigler & Gibson, 1990a; Haigler & Gibson, 1990b), 30 and 100 μg of the respective proteins were used. Spinach ferredoxin reductase and ferredoxin were also substituted for Ccr as described by Subramanian et al. (1979).
Determination of Kinetic Parameters. Apparent kinetic parameters of Ndm were determined by measuring the initial rate of disappearance (vo) of paraxanthine or 7-methylxanthine in 50 mM KPi buffer (pH 7.5) at 30° C. The paraxanthine and 7-methylxanthine concentrations ([S]) used in these experiments were from 20 to 500 μM. Substrates were incubated with Ndm and Ccr under standard conditions for 15 minutes. At 1, 5, 10, and 15 minutes, samples were removed from the reaction mixtures to quantitate substrate concentrations by HPLC. Plots of substrate concentrations against time were used to determine the initial rates of disappearance of substrates which were linear over 15 minutes. The apparent kinetic parameters were determined from Michaelis-Menten plots of Vo against [S] fitted with the equation
Determination of Oxygen Requirement. Oxygen consumption by Ndm during N-demethylation of paraxanthine was determined in a closed reaction vessel equipped with a Clarke-type oxygen electrode (Digitial Modell 0, Rank Brothers Ltd., Cambridge, England). The electrode was calibrated by using glucose oxidase (Sigma) and glucose for consumption of oxygen. Ndm activity assay was performed at 30° C. in a total volume of 1 ml of air-saturated 50 mM KPi buffer (pH 7.5) with 100 μM paraxanthine, 200 μM NADH, 50 μM Fe(NH4)2(SO4)2, 0.2 mg purified Ndm, and 4 U partially purified Ccr. The reaction was initiated by adding Ndm and partially purified Ccr after equilibration of all other reaction components for 3.3 minutes. After 13 minutes, a 100-μL aliquot was withdrawn from the reaction, immediately mixed with equal volume of acetonitrile to stop the enzyme reaction, and analyzed for N-demethylation product by HPLC. Background oxygen consumption, possibly due to NADH oxidase enzyme activity in the partially purified Ccr, was quantitated in control reactions containing all reaction components except paraxanthine.
Formaldehyde Determination. […] Twenty μL Nash reagent was added to 50 μl Ndm reaction sample plus 50 μl acetonitrile. This mixture was incubated at 51° C. for 12 minutes.

[2] = biological target: T2, NdmA-His6 (Pseudomonas putida, UniProt H9N289); experiment: Methylxanthine N-demethylase assay and kinetics, NdmA-His6 with His6-NdmD; type: biochemical, Pseudomonas putida CBB5
T2 construct: made in house; host or cells: E. coli BL21(DE3)
T2 sequence (H9N289 1-351): T1 sequence (H9N289 1-351)
Experimental: (§1) Methylxanthine N-demethylase activity assay contained, in 1-ml total volume, 0.5 mM methylxanthine, 1 mM NADH, 50 μM Fe(NH4)2(SO4)2, and an appropriate amount of NdmA-His6 or NdmB-His6 (7.4 μg-2.5 mg protein depending on substrate specificity) in 50 mM KPi buffer (pH 7.5). Approximately 4 U of partially purified reductase, prepared as described previously (Summers et al., 2011) or 59 U of purified His6-NdmD was added to reaction mixture. Catalase from bovine liver (4,000 U) was also added to reactions containing His6-NdmD. The reaction mixture was incubated at 30° C. with 300 rpm shaking on an incubating microplate shaker (VWR, Radnor, Pa.). Periodically, a small aliquot was sampled from the reaction mixture and mixed with equal volume of acetonitrile for quantifying concentrations of methylxanthines and N-demethylated products by HPLC. One unit of N-demethylase activity was defined as the consumption of one […] methylxanthine per minute.
(§2) Apparent kinetic parameters of NdmA-His6 and NdmB-His6 were determined by measuring the initial rate of disappearance (vo) of methylxanthines in 50 mM KPi buffer (pH 7.5) at 30° C. The initial substrate concentrations (ESI) used in these experiments were from 25 to 500 μM. Substrates were incubated with His6-NdmD plus either NdmA-His6 or NdmB-His6 under standard conditions for 15 minutes. At 1, 5, 10, and 15 minutes, samples were removed from the reaction mixtures to quantitate substrate concentrations by HPLC. Plots of substrate concentrations against time were used to determine the initial rates of disappearance of substrates which were linear over 15 minutes. The apparent kinetic parameters were determined from Michaelis-Menten plots of vo against [S] fitted with the equation

[3] = biological target: T3, NdmB-His6 (Pseudomonas putida, UniProt H9N290); experiment: Methylxanthine N-demethylase assay and kinetics, NdmB-His6 with His6-NdmD; type: biochemical, Pseudomonas putida CBB5
T3 construct: made in house; host or cells: E. coli BL21(DE3)
T3 sequence (H9N290 1-355): T1 sequence (H9N290 1-355)
Experimental: as §1, §2

[4] = tested on: cell extracts prepared from P. putida CBB5; experiment: NADH-dependent N-demethylase activity of CBB5 cell extracts; type: biochemical, Pseudomonas putida CBB5; settings: 0.5 mM substrate, 7.2 mg mL^−1 protein
[5] = tested on: Pseudomonas putida CBB5; experiment: Resting cell degradation of caffeine in coffee extract, black tea extract and buffer by CBB5; type: cell-based
[6] = tested on: recombinant E. coli cells that contain NdmABCD; experiment: Conversion by recombinant E. coli cells without NdmE; type: cell-based; settings: absence of NdmE
[7] = tested on: E. coli cells expressing NdmABCDE; experiment: Conversion by recombinant E. coli cells with NdmE; type: cell-based
[8] = tested on: NdmC
[9] = tested on: bacteria; settings: 0.1% concentration; cited from earlier work
[10] = biological target: His6-NdmD (Pseudomonas putida, UniProt H9N291); experiment: N-demethylase activity of purified His6-NdmD alone; type: biochemical, Pseudomonas putida CBB5
Sequence of His6-NdmD (H9N291 1-588 with tags or gaps): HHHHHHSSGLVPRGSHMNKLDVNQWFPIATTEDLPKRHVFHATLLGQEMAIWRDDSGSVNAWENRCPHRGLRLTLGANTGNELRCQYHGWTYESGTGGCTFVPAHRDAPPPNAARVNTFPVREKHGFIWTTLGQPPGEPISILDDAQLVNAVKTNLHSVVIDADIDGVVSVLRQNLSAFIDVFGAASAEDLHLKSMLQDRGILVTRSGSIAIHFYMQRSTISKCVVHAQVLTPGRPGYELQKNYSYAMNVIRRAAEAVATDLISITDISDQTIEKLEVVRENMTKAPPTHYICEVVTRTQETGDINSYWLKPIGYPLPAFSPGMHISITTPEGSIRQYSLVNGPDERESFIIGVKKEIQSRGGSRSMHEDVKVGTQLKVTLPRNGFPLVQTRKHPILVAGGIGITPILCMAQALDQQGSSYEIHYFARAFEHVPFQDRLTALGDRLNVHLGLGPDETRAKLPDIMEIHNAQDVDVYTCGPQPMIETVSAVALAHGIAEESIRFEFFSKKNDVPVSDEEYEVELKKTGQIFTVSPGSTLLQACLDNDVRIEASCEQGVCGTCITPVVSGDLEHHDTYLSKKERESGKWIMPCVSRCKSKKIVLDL

Cn1c(=O)c2c(ncn2C)n(C)c1=O [Caffeine, 1,3,7-trimethylxanthine]
Products identified [1]: paraxanthine, and theobromine, and 7-methylxanthine, and xanthine
Relative N-demethylase activity ([1]; substrate conc. 200 μM): 48.2 ± 4.8
Relative N-demethylase activity ([1]; substrate conc. 500 μM): 30.8 ± 1.7
Product ([2]; NdmA-His6): Theobromine
Product ([2]; NdmA-His6, listed as caffeine): theobromine
Product ([3]; NdmB-His6): Paraxanthine
degradation rate compared with paraxanthine [4]: significantly slower
time for caffeine degradation ([5]; 18 mM (highest concentration) caffeine in buffer solution): 2 h
time for caffeine degradation ([5]; 18 mM caffeine in coffee extract): 6 h
time for caffeine degradation ([5]; diluted black tea extract (1 mM caffeine)): ≤ 0.667 h
time for caffeine disappearance ([5]; undiluted black tea extract (8 mM caffeine)): 40 min
conversion by cells [6]: 7-methylxanthine from caffeine, but not xanthine
conversion product [7]: xanthine
N-demethylation by NdmC fraction [8]: not N-demethylated
effect on protein synthesis in bacteria and yeast [9]: inhibits protein synthesis

Cn1cnc2[nH]c(=O)[nH]c(=O)c21 [7-Methylxanthine, 7-methylxanthine]
product formed from paraxanthine [1]: 126.9 ± 6.40 µM
product formed from paraxanthine ([1]; listed as 7-methylxanthine): 126.9 ± 6.4 µM
N-demethylation product present ([1]; from paraxanthine, after 13 minutes): Approximately 39.9 μM
Products identified [1]: xanthine
Relative N-demethylase activity ([1]; substrate conc. 200 μM): 664.2 ± 61.1
Relative N-demethylase activity ([1]; substrate conc. 500 μM): 455.7 ± 17.6
N-demethylase activity ([2]; NdmA): inactive
Km ([2]; NdmA-His6, 30° C., pH 7.5, ∞ where no activity): ∞
N-demethylase activity ([3]; NdmB): no activity
Km ([3]; NdmB-His6, 30° C., pH 7.5, ∞ where no activity): ∞
activity of purified His6-NdmD [10]: no activity
conversion by cells [6]: remained untouched
conversion product [7]: xanthine
N-demethylation by NdmC fraction [8]: sole substrate
